Assay results reported in patent publication US11414387B2, “Oxoacridinyl acetic acid derivatives and methods of use” (Stingthera, Inc., priority 2017, dated 2022).

How the values were obtained:
STING protein = STING protein (Homo sapiens (Human), UniProt Q86WV6, H232R); assay: Cell based reporter assay of IRF activation (IRF-luciferase), THP1-dual-KI R232; conditions: read-out: THP1-dual-KI R232_IRF(Luciferase)_Activity Maximum measured (%)
Text: Briefly, THP-1 monocytes were transfected and selected for stable integration of 2 reporter constructs. Clones incorporating stably integrated vectors were further selected by antibiotic resistance to blastocidin and zeocin. The reporter constructs included: (1) firefly luciferase reporter gene under the control of an ISG54 promoter fused to five interferon (IFN)-stimulated response elements to measure IRF transcription factor binding activity and (2) secreted embryonic alkaline phosphatase reporter gene under transcription control of an IFN-beta minimal promoter fused to 5 copies of the NFkB consensus transcriptional response element and 3 copies of the c-Rel binding site.
The resulting THP-1 cell line was further modified to incorporate 3 amino acid point mutations (H71R A230G Q293R). This modification of the native TMEM173 gene in THP-1 cells (HAQ) was designed to produce a cell reporter that expressed the most common allelic variant in the human population (THP-1 R232, available from InvivoGen). Alternatively, the TMEM173 gene was knocked out to provide a congenic control to counter-screen for compound activation that was independent of the STING protein (THP-1 STING KO).
Once cell lines were established, reporter assay protocols were developed and optimized to screen small molecule compounds for agonist activity. Assay optimization for efficacy and Z′ value included titration of the following parameters:
• 1. Cell pre-activation with PMA • 2. Cell seeding density • 3. DMSO tolerance • 4. Media selection • 5. FBS concentration • 6. Incubation time • 7. Co-Assessment of cell viability by CTG assay • 8. Appropriate HPE and ZPE controls • 9. Dose Response Titration Final Assay SOP Conditions • 1. No pre-activation with PMA • 2. 5×10^4 cells/well in 96 well plate format • 3. <0.5% DMSO • 4. […] 10% FBS • 6. 14-18 hr incubation • 7. Cell Titer Glo reagent (Promega) following supernatant removal • 8.

hSTING-WT = hSTING-WT (Homo sapiens (Human), UniProt Q86WV6, H232R); assay: Radiometric filtration binding competition assay, hSTING-WT
Sequence of hSTING-WT (Q86WV6 140-379 H232R): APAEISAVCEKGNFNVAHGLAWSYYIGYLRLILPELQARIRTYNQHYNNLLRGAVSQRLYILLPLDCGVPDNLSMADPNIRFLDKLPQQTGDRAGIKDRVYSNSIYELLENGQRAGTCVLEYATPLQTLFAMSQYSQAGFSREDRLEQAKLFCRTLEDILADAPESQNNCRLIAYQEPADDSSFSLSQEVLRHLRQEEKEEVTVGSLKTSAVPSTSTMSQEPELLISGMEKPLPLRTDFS

hSTING-R232 = hSTING-R232 (Homo sapiens (Human), UniProt Q86WV6, H232R); assay: STING differential scanning fluorimetry (DSF) assay, WT human STING; conditions: WT (R232) human STING aa140-379, net shift in melting temperature
Sequence of hSTING-R232 (Q86WV6 140-379 H232R): as above

mSTING = mSTING (Mus musculus, UniProt Q3TBT3); assay: Radiometric filtration binding competition assay, mSTING
mSTING-R232 = mSTING-R232 (Mus musculus, UniProt Q3TBT3); assay: STING differential scanning fluorimetry (DSF) assay, mouse STING; conditions: net shift in melting temperature
Experimental: A STING DSF assay was performed to determine protein thermostability shift in response to small molecule ligand binding. A STING thermostability shift assay based on differential scanning fluorimetry was used to measure (1) the net shift in melting temperature (ΔTm)between the apo and ligand-bound states of the STING protein and (2) the concentration of the thermal denaturation transition (EC50) as a surrogate measure of binding affinity (K). […] Protein in assay buffer was transferred to a 384 well plate and incubated with the hydrophobic fluorescent dye SYBR Orange. A temperature ramp was applied to the plate and the resulting dye fluorescence was plotted as a function of temperature. The first derivative of this function (dF/dT) was then used to extrapolate the melting temperature of the protein at various concentrations of compound and determine the thermal denaturation profile of a protein/compound complex.
• 1. Protein construct (affinity tag removal vs SUMO-fusion construct) • 2. Protein concentration • 3. Dye concentration • 4. Buffer • 5. Thermal ramp velocity • 6. DMSO tolerance • 7. Compound titration parameters • 8. […] 5 μM purified Target STING Protein • 3. 8 μM Sypro Orange Dye • 4. Buffer: 100 mM NaCl, 30 mM HEPES, pH 7.5 • 5. Thermal Ramp: 0.5° C./min • 6. <1% DMSO • 7. 11 point, 2 fold dilution, duplicate, 300 μM high concentrations • 8.

Sequence of STING protein (Q86WV6 whole entry H232R): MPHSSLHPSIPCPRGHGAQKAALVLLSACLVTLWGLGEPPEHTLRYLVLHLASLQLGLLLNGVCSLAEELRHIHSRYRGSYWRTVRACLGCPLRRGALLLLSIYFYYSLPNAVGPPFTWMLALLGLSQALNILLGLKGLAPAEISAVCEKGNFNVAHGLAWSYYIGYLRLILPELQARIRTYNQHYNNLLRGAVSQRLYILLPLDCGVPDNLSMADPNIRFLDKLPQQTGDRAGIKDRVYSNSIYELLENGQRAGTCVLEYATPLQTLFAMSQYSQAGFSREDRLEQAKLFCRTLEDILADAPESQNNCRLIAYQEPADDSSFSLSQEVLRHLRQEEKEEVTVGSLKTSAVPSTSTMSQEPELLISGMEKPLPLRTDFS

| Compound | Emax (STING protein) [%] | IC50 (hSTING-WT) [µM] | WT_DSF_hSWAT Tm Shift (° C.) (hSTING-R232) | IC50 (mSTING) [µM] | MOUSE DSF_6xHIS-SUMO Tm Shift (° C.) (mSTING-R232) |
| --- | --- | --- | --- | --- | --- |
| COc1c(Cl)ccc2c(=O)c3ccc(C(C)(C)C)cc3n(CC(=O)NS(C)(=O)=O)c12 [Compound 262] | > 50 | 20 to 100 | D (“D” > 7° C.) | < 20 | D (“D” > 15° C.) |
| CC(=O)COc1c(Cl)ccc2c(=O)c3ccccc3n(CC(=O)O)c12 [Compound 312] | < 5 | > 300 | B (“B” = 0-2° C.) | > 300 | B (“B” = 0-5° C.) |
| CC(C)c1ccc2c(=O)c3ccc(Cl)c(OC[C@@H](C)O)c3n(CC(=O)O)c2c1 [Compound 327] | < 5 | > 300 | C (“C” = 2-7° C,) | > 300 | C (“C” = 5-15° C.) |
| COc1c(Cl)ccc2c(=O)c3ccc(NC4CCCC4)cc3n(CC(=O)O)c12 [Compound 293] | > 50 | < 20 | D (“D” > 7° C.) | < 20 | D (“D” > 15° C.) |
| COc1c(Cl)ccc2c(=O)c3ccc(Nc4ccc(F)cc4)cc3n(CC(=O)O)c12 [Compound 250] | > 50 | < 20 | D (“D” > 7° C.) | < 20 | D (“D” > 15° C.) |
| COc1c(Cl)ccc2c(=O)c3ccc(Nc4cccc(O)c4)cc3n(CC(=O)O)c12 [Compound 235] | < 5 | < 20 | D (“D” > 7° C.) | < 20 | D (“D” > 15° C.) |
| COc1c(Cl)ccc2c(=O)c3ccc(Nc4ccc(Cl)cc4)cc3n(CC(=O)O)c12 [Compound 251] | 25 to 50 | 20 to 100 | D (“D” > 7° C.) | < 20 | D (“D” > 15° C.) |
| COc1cccc2c(=O)c3ccc(Cl)c(OC)c3n(CC(=O)O)c12 [Compound 333] | 5 to 25 | > 300 | B (“B” = 0-2° C.) | > 300 | B (“B” = 0-5° C.) |
| CN(C)c1c(Cl)ccc2c(=O)c3ccc(Nc4ccccc4)cc3n(CC(=O)O)c12 [Compound 332] | > 50 | < 20 | D (“D” > 7° C.) | < 20 | D (“D” > 15° C.) |
| CC(C)Oc1c(Cl)ccc2c(=O)c3ccc(C(C)(C)C)cc3n(CC(=O)O)c12 [Compound 225] | > 50 | < 20 | D (“D” > 7° C.) | 20 to 100 | D (“D” > 15° C.) |
| O=C(O)Cn1c2ccccc2c(=O)c2ccc(Cl)c(OCCO)c21 [Compound 328] | < 5 | > 300 | B (“B” = 0-2° C.) | > 300 | C (“C” = 5-15° C.) |
| COCCOc1c(Cl)ccc2c(=O)c3ccccc3n(CC(=O)O)c12 [Compound 330] | < 5 | > 300 | B (“B” = 0-2° C.) | > 300 | B (“B” = 0-5° C.) |
| COc1cc2c(=O)c3ccc(Cl)c(OC)c3n(CC(=O)O)c2cc1C(C)C [Compound 318] | 5 to 25 | 100 to 300 | C (“C” = 2-7° C,) | > 300 | B (“B” = 0-5° C.) |
| CN(Cc1ccccc1)c1c(Cl)ccc2c(=O)c3ccccc3n(CC(=O)O)c12 [Compound 310] | 5 to 25 | 100 to 300 | A (“A” < 0° C.) | > 300 | A (“A” < 0° C.) |
| COc1c(Cl)ccc2c(=O)c3ccc(NC4CCC4)cc3n(CC(=O)O)c12 [Compound 292] | > 50 | < 20 | D (“D” > 7° C.) | < 20 | D (“D” > 15° C.) |
